For three compounds, IC50 results are on record in patent US9227969B2, “Compounds and compositions as inhibitors of MEK” (NOVARTIS AG, priority 2013, dated 2016).

Structures are written as SMILES. pIC50: −log10 of the molar value. Like-named read-outs stand apart in the source and are kept apart here.

The target in assay [1] is T1, human full length MEK1 kinase (Homo sapiens (Human), UniProt Q02750). To be noted: read-out: MEK1 1 mM ATP IC50, BRAF-MEK-ERK cascade.
Text: (§2) A BRAF-MEK-ERK cascade assay is used to evaluate the effects of these compounds as inhibitors of the MAP kinase pathway. […] TR-FRET (Time resolved fluorescence resonance energy transfer) detection technology is used for the read out.
Assay [2] has as its target T1, human full length MEK1 kinase. As to the kind of experiment: biochemical.
Text: as §2
The next assay has as its target ABL1 (Homo sapiens (Human), UniProt P00519). As to the kind of experiment: Kinase Panel screen: ABL1. It counts as biochemical. The source says:
(§1) Compounds of the invention are screened, using assay conditions known in the art, against some or all of the “Kinase Panel” comprising ABL1, ABL1 (T315I), ACVR1, AKT1, ALK, AURKA, AXL, BTK, CAMK2D, CDK1B, CDK2A, CDK4D1, CSK, CSNK1G3, EGFR, EPHA4, EPHB4, ERBB4, FGFR1, FGFR2, FGFR3, FGFR3 (K650E), FGFR4, FLT3 (D835Y), IGF1R, GSK3B, INSR, IRAK4, JAK1, JAK2, JAK3, KDR, KIT, LCK, LYN, MAP3K8, MAPK1, MAPK10, MAPK14, MAPKAPK2, MAPKAPK5, MET, MKNK1, MKNK2, PAK2, PDGFRa, PDPK1, PIM2, PKN1, PKN2, PLK1, PRKACA, PRKCA, PRKCQ, RET, ROCK2, RPS6 KB1, SRC, SYK, TYK2, WNK1, ZAP70, PIKSCD, PIK3CG, MTOR, PIK3C3, PIK3CA, PIK3CB and PIK4CB.

For another assay, the target named is LCK (Homo sapiens (Human), UniProt P06239). As to the kind of experiment: Kinase Panel screen: LCK. The class given is biochemical.
LCK, sequence (P06239 whole entry, species assumed): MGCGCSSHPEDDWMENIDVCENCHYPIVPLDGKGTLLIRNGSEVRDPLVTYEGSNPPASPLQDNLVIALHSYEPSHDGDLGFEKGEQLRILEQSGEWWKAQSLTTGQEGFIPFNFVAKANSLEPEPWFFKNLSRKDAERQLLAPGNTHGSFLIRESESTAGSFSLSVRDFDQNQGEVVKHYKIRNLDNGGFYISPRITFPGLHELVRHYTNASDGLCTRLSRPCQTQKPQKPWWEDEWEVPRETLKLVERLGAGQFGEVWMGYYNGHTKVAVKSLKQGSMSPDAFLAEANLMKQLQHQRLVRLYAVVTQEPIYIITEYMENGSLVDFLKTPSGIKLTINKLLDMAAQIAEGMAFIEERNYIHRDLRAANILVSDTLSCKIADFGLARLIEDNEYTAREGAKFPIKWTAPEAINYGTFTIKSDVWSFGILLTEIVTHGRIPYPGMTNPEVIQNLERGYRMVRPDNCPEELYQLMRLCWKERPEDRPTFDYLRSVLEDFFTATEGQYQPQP
Text: as §1

The target in another assay is LYN (Homo sapiens (Human), UniProt P07948). As to the kind of experiment: Kinase Panel screen: LYN. The class given is biochemical.
LYN, sequence (P07948 whole entry, species assumed): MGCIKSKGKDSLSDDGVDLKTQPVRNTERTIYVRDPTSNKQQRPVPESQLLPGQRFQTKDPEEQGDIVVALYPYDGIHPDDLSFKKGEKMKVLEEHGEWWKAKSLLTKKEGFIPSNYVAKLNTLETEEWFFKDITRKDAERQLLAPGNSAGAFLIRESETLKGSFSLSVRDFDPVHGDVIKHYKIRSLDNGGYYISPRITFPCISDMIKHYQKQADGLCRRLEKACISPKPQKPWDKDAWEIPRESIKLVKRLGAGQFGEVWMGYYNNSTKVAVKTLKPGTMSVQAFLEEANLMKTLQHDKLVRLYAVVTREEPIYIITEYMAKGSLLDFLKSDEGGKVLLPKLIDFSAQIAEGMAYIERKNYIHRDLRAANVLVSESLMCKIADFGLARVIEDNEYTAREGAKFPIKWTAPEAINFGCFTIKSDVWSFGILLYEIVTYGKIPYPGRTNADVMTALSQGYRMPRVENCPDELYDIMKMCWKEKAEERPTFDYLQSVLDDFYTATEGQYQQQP
Text: as §1

The target in the next assay is PDGFRa (Homo sapiens (Human), UniProt P16234). As to the kind of experiment: Kinase Panel screen: PDGFRa. The class given is biochemical.
PDGFRa, sequence (P16234 24-1089, species assumed): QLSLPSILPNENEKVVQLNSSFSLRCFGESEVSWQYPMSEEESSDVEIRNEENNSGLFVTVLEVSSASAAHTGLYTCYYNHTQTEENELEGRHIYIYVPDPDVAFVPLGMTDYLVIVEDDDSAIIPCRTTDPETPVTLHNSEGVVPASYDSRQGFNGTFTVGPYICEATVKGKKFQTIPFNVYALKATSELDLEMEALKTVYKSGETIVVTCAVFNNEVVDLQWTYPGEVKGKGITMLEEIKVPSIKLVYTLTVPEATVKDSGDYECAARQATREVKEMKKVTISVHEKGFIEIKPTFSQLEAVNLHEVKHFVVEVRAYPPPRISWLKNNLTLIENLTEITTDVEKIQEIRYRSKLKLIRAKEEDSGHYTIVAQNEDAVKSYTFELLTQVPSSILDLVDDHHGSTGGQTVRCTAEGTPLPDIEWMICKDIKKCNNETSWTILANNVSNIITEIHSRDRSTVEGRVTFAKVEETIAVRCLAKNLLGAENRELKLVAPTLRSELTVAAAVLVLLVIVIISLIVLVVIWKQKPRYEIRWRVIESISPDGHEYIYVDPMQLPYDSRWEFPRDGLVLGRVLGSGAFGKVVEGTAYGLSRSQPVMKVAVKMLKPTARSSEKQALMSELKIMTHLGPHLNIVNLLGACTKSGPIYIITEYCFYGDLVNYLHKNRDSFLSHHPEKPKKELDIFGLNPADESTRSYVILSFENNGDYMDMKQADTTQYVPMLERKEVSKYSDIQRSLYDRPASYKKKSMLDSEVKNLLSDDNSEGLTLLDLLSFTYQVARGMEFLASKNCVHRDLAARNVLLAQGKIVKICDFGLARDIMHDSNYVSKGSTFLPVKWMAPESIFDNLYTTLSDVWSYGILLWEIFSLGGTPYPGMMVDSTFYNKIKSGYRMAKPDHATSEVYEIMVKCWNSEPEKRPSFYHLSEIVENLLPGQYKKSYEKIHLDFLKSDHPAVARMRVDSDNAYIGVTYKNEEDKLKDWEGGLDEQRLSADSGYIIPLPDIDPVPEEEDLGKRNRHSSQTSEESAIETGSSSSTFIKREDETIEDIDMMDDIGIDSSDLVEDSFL
Text: as §1

T1 sequence (Q02750 whole entry): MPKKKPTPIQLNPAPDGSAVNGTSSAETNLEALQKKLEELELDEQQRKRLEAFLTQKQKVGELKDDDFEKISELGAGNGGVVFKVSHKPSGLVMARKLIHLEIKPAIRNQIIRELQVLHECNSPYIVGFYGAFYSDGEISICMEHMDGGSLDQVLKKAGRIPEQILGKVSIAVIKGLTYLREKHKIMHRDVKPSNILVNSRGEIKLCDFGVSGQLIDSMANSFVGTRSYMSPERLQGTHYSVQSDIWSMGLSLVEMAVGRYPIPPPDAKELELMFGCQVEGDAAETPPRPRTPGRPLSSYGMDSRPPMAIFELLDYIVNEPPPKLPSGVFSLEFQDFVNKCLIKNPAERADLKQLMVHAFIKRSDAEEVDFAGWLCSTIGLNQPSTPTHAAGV
ABL1, sequence (P00519 whole entry, species assumed): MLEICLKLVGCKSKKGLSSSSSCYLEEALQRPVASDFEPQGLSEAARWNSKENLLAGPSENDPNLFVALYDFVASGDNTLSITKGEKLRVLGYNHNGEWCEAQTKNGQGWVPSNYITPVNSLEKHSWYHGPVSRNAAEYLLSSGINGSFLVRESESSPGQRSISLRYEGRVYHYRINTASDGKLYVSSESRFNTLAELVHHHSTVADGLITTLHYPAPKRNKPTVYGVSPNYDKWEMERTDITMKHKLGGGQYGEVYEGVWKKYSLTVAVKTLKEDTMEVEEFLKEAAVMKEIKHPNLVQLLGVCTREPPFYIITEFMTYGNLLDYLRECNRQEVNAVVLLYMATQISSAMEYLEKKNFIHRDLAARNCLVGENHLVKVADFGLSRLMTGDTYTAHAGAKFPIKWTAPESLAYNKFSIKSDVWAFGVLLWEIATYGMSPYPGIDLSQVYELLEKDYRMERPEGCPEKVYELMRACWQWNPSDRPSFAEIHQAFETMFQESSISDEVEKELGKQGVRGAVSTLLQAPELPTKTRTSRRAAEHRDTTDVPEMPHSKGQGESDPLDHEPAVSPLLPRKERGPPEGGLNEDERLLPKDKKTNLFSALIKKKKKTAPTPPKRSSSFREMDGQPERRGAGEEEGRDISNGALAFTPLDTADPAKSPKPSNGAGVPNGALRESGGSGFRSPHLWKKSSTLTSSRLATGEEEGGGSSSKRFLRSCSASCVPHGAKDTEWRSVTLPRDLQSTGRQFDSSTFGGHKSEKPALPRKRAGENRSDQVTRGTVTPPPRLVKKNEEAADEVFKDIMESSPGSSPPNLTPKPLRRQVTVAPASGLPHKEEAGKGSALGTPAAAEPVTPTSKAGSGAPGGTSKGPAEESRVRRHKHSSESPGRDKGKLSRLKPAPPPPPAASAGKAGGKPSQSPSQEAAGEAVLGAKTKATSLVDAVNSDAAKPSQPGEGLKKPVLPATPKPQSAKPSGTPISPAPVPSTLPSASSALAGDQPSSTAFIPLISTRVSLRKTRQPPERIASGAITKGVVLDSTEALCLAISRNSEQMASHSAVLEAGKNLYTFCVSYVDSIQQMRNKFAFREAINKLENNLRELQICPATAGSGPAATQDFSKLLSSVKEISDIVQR

As for `Cc1nc2cnc3cc(F)c(-c4ccc(Oc5ncccn5)cc4Cl)cc3c2n1[C@H]1CCN(C(=O)CO)C[C@@H]1F` [Example 1A, 1-((3S,4S)-4-(8-(2-chloro-4-(pyrimidin-2-yloxy)phenyl)-7-fluoro-2-methyl-1H-imidazo[4,5-c]quinolin-1-yl)-3-fluoropiperidin-1-yl)-2-hydroxyethanone], the pIC50 in assay [1] and in assay [2] was 8.30 throughout.
On to `Cc1nc2cnc3cc(F)c(-c4ccc(Oc5ncccn5)cc4Cl)cc3c2n1[C@@H]1CCN(C(=O)CO)C[C@H]1F` [Example 1B, 1-((3R,4R)-4-(8-(2-chloro-4-(pyrimidin-2-yloxy)phenyl)-7-fluoro-2-methyl-1H-imidazo[4,5-c]quinolin-1-yl)-3-fluoropiperidin-1-yl)-2-hydroxyethanone], for which the pIC50 in assay [1] and in assay [2] was 6.86 each time.
For the compound `COc1cc(Oc2ccccn2)ccc1-c1ccc2ncc3ncn(-c4ccc(CC#N)cc4)c3c2c1` [compound (B)], the pIC50 (commonly the negative decadic logarithm of the IC50, by convention in mol/L) against ABL1 was 7.70; at LCK it was 8.15; on LYN, 7.52; on PDGFRa it was 7.30.
